In one test the target is T1, human diferric transferrin (Homo sapiens, UniProt P02787).
T1 construct: purchased Sigma Chemicals
T1 sequence (P02787 20-698): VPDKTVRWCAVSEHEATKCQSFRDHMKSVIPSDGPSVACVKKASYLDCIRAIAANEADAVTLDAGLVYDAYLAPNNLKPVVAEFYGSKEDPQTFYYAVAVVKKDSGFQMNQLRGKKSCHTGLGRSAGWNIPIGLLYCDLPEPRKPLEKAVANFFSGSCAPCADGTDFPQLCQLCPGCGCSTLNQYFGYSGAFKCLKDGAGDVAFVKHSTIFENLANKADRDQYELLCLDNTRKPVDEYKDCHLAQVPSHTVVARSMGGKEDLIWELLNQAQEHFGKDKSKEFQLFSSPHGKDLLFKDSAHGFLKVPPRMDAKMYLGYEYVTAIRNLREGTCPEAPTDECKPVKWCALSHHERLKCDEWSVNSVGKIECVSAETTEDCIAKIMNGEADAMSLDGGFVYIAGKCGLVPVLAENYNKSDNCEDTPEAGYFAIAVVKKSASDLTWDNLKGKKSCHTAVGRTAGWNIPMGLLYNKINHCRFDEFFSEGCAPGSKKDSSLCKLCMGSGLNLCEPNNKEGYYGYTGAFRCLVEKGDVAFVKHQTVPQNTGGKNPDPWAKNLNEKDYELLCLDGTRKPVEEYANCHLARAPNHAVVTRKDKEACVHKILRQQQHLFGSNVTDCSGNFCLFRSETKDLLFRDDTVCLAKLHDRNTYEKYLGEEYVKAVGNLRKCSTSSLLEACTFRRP
The test can be described thus: Transferrin dissociation promotion test (FerroZine, absorption at 562 nm). Type of test: biochemical. Conditions: after 24 hours, 10 mmol.l^−1 test material, 37° C., pH 6.5, control 0.111. As to the method:
2.7 g.l^−1 human diferric transferrin (ex Sigma Chemicals) is incubated at 37° C. in 50 mM HEPES (N-[2-hydroxyethyl]piperazine-N-[2-ethanesulfonic acid]) buffer adjusted to pH 6.5 with sodium hydroxide, together with 0.115 g.l^−1 FerroZine (ex Sigma Chemicals; 3-(2-pyridyl)-5,6-bis(4-phenylsulfonic acid)-1,2,4-triazine, monosodium salt) and 10 mmol.l^−1 of the test material, if water soluble, or 2.5 g.l^−1 of the test material, added as a finely ground powder, if water insoluble.
After 24 hours, the extent of transferrin dissociation is estimated by eye or spectrophotometrically. Transferrin dissociation promoters lead a purple colouration; in particular, they lead to an absorption at 562 nm of 0.15 or greater. This purple colouration is the result of the production of iron(II) tri(FerroZine) complex. The molar concentration of this complex is equal to the molar concentration of iron dissociated from the transferrin.
2.7 g.l^−1 human diferric transferrin (ex Sigma Chemicals) was incubated at 37° C. in 50 mM HEPES (N-[2-hydroxyethyl]piperazine-N′-[2-ethanesulfonic acid]) buffer adjusted to pH 6.5 with sodium hydroxide, together with 0.115 g.l^−1 FerroZine (ex Sigma Chemicals; 3-(2-pyridyl)-5,6-bis(4-phenylsulfonic acid)-1,2,4-triazine, monosodium salt) and 10 mmol.l^−1 of the test material.
After 24 hours, the extent of transferrin dissociation was estimated spectrophotometrically by measuring absorption at 562 nm (vide supra). The data (see Table 5) illustrate the enhanced transferrin dissociation occurring in the presence of the indicated test materials.
Turning to `O=S(=O)(O)c1cc(O)c(O)c(S(=O)(=O)O)c1` [Iron, 4,5-dihydroxy-1,3-benzenedisulfonic acid], the Absorption is on record as 0.425.

The compound `O=C(O)c1ccc(O)c(O)c1` [Protocatechuic acid] had an Absorption of 0.391.

The compound `O=C(O)c1ccccc1O` [Salicylic acid] showed an Absorption of 0.305.

The test system of another test is Staphylococcus epidermidis. The test can be described thus: Anti-microbial performance test: growth inhibition of axillary isolate of S. epidermidis in semi-synthetic medium (OD 600 nm). In kind it is cell-based. Conditions: concentration of 3×10^−6 mol.dm^−3 or less. As to the method: An axillary isolate of Staphylococcus epidermidis was grown overnight in 100 ml of tryptone soy broth (TSB, Oxoid Ltd). 10 ml of this culture was taken and subjected to centrifugation. The separated cells were re-suspended in 10 ml of phosphate buffered saline and the centrifugation procedure repeated. The washed cells were re-suspended in 10 ml of phosphate buffered saline to give the inoculum. 100 μl of the inoculum was added to 100 ml of semi-synthetic medium (SSM) containing (NH4)2SO4 (0.066 g),MgSO4.7H2O (0.012 g), KCl (0.1 g), KH2PO4 (0.27 g), Na2HPO4 (1.43 g), thiamin (0.1 mg), biotin (0.05 mg), Peptone P (0.05 g), and glucose (2.0 mmole) which had been previously sterilised by autoclaving at 121° C. for 20 minutes. The pH of the SSM was adjusted to 6.7 with HCl after sterilisation, prior to addition of the inoculum. This control medium was utilised in all of the in vitro inhibition studies. The chelator-containing test media were prepared in a similar manner, the chelator being introduced at a concentration of 3×10^−6 mol.dm^−3 before the pH adjustment with HCl.
100 μl of the S. epidermidis inoculum was introduced into the control medium and into test media containing the chelators indicated in Table 2. The cultures were inoculated at 37° C. (with agitation at 200 rpm) for 16 hours, and the optical density of the cultures measured at 600 nm to determine the extent of bacterial growth. By comparison of the optical density of the culture in the presence of chelating agent, to that of the control, the percentage inhibition of growth was established. (Optical density measurements were made on 1 in 4 dilutions of the cultures with 0.9% (w/v) saline, using 1 cm path length cuvettes, on a Pharmacia Biotech Ultrospec 200 Spectrophotometer.)
For the compound `O=C(O)CN(CC(=O)O)[C@@H]1CCCC[C@H]1N(CC(=O)O)CC(=O)O` (relative stereo) [CDTA, trans-1,2-diaminocyclohexane-N,N,N′,N′-tetraacetic acid], the “Significant inhibition of growth of S. epidermidis (at least 30%)” value (“Significant inhibition … (at least 30%)” for short) is given as “are not”.

For `O=C(O)CN(CCN(CC(=O)O)CC(=O)O)CCN(CC(=O)O)CC(=O)O` [DTPA, diethylenetriaminepentaacetic acid], the “Significant inhibition … (at least 30%)” value is “capable of achieving significant inhibition”.

Turning to `O=C(O)CN(CCN(CC(=O)O)CC(=O)O)CC(=O)O` [EDTA, ethylenediaminetetraacetic acid], the “Significant inhibition … (at least 30%)” value is “are not”.

In the case of `O=C(O)CN(CCN(CCN(CC(=O)O)CC(=O)O)CC(=O)O)CCN(CC(=O)O)CC(=O)O` [TTHA, triethylenetetraaminehexaacetic acid], the “Significant inhibition … (at least 30%)” value is recorded as “capable of achieving significant inhibition”.
